This passage reports IC50 results from patent EP4800015A1, “AZABICYCLO DERIVATIVE AND PREPARATION METHOD THEREFOR, AND USE” (Zhejiang Hisun Pharmaceutical Co., Ltd., priority 2023, dated 2025).

By IC50 is commonly meant the concentration at which inhibition is half-maximal.

The experiment has as its target T1, recombinant human WRN (Homo sapiens, UniProt Q14191).
T1 construct: purchased BPS 101264
Nature of the experiment: Inhibition of WRN enzyme activity (ATPase), ADP-Glo Kinase Assay. It is filed as biochemical. As to conditions: WRN protein 5 nM, Flap 0.1 nM, ATP 30 µM. From the text:
The following method was used to determine the degree of inhibition of recombinant human WRN ATPase activity by the compounds of the present disclosure in vitro. In this method, ADP-Glo™ Kinase Assay kit (catalog No. V9102) from Promega was used. Detailed experimental procedures can be found in the kit manual.
The experimental procedure was briefly described as follows: test compounds were first dissolved in DMSO to prepare stock solutions, followed by serial dilution using reaction buffer (30 mM Tris, pH 7.5, 2 mM MgCl2, 50 mM NaCl, 0.02% BSA, 0.1% Pluronic F127), with final concentrations of test compounds in the reaction system ranging from 1000 nM to 0.004 nM; WRN protein (purchased from BPS, catalog No. 101264), substrate 5-flap oligonucleotide (Flap26) (synthesized by Shanghai Generay Biotech Co., Ltd., sequence 5'-[…]-3'), and ATP working solution (from ADP-Glo™ Kinase Assay kit component V915A) were prepared using reaction buffer. Reactions were performed in 384-well microplates. At first the compounds and recombinant human WRN protein (final concentration 5 nM) were added to the wells and the plate was incubated at room temperature for 15 minutes, then Flap solution (final concentration 0.1 nM) and ATP solution (final concentration 30 µM) were added to the reaction solution and the plate was incubated at room temperature for 10 minutes. Subsequently, 5 µL of ADP-Glo Reagent was added to the reaction system and incubated at room temperature for 40 minutes. Then 10 µL of Kinase Detection Reagent was added to the reaction system and incubated at room temperature for 30 minutes. After the incubation was completed, chemiluminescence intensity values of each well were measured using a microplate reader in luminescence mode. The percentage inhibition of the compounds at each concentration was calculated by comparison with the luminescence intensity values of the control group (0.1% DMSO), and IC50 values of compounds were obtained by nonlinear regression analysis of compound concentration logarithm-inhibition rate using GraphPad Prism 9 software, as shown in Table 1.
The IC50 value results of the compounds of the present disclosure are expressed as AA and A, respectively as follows: "AA" indicates IC50 ≤ 1 nM; "A" indicates 1 nM < IC50 ≤ 100 nM. Table 1 IC50 of the compounds of the present disclosure for inhibiting WRN enzyme activity (ATPase)

Where two headings read alike, the source gives them in different places.

T1 sequence (Q14191 whole entry): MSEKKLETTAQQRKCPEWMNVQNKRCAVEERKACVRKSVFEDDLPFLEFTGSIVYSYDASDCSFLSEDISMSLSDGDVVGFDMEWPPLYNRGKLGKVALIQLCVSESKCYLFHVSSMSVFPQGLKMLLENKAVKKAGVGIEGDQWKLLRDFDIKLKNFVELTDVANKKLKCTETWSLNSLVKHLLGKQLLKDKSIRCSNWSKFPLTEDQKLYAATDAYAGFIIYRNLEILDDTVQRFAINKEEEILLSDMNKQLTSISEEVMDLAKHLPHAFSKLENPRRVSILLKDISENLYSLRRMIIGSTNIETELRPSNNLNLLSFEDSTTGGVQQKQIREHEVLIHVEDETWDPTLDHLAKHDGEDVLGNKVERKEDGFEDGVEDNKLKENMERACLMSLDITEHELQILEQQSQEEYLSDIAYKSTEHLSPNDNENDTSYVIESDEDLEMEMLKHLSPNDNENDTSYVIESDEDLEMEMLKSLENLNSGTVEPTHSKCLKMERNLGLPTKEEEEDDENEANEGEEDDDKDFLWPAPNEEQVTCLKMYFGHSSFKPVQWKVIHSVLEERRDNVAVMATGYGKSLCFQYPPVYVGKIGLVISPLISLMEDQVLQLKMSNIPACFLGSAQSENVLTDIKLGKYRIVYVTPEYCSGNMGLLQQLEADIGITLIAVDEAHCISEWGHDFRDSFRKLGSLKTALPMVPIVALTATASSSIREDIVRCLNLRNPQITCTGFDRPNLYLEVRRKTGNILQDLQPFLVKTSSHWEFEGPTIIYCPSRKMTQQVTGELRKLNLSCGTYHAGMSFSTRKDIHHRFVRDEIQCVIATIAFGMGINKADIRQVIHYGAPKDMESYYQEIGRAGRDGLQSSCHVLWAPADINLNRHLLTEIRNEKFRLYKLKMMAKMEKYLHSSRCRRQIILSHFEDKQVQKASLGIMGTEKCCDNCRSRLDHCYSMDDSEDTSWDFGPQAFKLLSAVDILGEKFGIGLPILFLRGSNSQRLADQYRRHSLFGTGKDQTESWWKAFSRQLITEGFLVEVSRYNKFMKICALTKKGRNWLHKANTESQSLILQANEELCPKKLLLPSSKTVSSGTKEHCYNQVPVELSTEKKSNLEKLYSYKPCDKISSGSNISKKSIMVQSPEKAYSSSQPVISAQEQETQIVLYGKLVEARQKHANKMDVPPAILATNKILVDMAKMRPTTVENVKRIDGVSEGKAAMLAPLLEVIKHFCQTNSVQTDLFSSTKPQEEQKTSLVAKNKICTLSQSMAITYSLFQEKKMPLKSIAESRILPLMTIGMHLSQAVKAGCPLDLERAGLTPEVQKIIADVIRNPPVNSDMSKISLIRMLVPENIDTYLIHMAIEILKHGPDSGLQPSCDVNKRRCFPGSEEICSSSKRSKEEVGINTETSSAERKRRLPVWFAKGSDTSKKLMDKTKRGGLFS

Take `CCc1c(N2CCN(C(=O)c3ncnc(C)c3O)CC2)c(=O)n2nc(N3CCC4(CCNC4=O)CC3)nc2n1CC(=O)Nc1ccc(C(F)(F)F)cc1Cl` [Example 13, N-(2-chloro-4-(trifluoromethyl)phenyl)-2-(5-ethyl-6-(4-(5-hydroxy-6-methylpyrimidine-4-carbonyl)piperazin-1-yl)-7-oxo-2-(1-oxo-2,8-diazaspiro[4.5]decan-8-yl)-[1,2,4]triazolo[1,5-a]pyrimidin-4(7H)-yl)acetamide]: the half-maximal inhibitory concentration (IC50) (read-out: IC50) was in the range of 1 to 100 nM.

With `CCc1c(N2CCN(C(=O)c3ccncc3O)CC2)c(=O)n2nc(C3=CCCCCC3)nc2n1CC(=O)Nc1ccc(C(C)(C)C)cc1` [Example 24, N-(4-(tert-butyl)phenyl)-2-(2-(cyclohept-1-en-1-yl)-5-ethyl-6-(4-(3-hydroxyisonicotinoyl)piperazin-1-yl)-7-oxo-[1,2,4]triazolo[1,5-a]pyrimidin-4(7H)-yl)acetamide], the IC50 (read-out: IC50) lay in the range of 1 to 100 nM.

Take `CCc1c(N2CCN(C(=O)c3ncnc(C)c3O)CC2)c(=O)n2nc(C=C3CCCC3)nc2n1CC(=O)Nc1ccc(C(F)(F)F)cc1Cl` [Example 117, N-(2-chloro-4-(trifluoromethyl)phenyl)-2-(2-(cyclopentylidenemethyl)-5-ethyl-6-(4-(5-hydroxy-6-methylpyrimidine-4-carbonyl)piperazin-1-yl)-7-oxo-[1,2,4]triazolo[1,5-a]pyrimidin-4(7H)-yl)a cetamide]: under “read-out: IC50”, the half-maximal inhibitory concentration (IC50) lay within 1 to 100 nM.

For `CCc1c(N2CCN(C(=O)c3ncnc(C)c3O)CC2)c(=O)n2nc(-c3ccn4ncnc4c3)nc2n1CC(=O)Nc1ccc(C(F)(F)F)cc1Cl` [Example 137, 2-(2-([1,2,4]triazolo[1,5-a]pyridin-7-yl)-5-ethyl-6-(4-(5-hydroxy-6-methylpyrimidine-4-carbonyl)piperazin-1-yl)-7-oxo-[1,2,4]triazolo[1,5-a]pyrimidin-4(7H)-yl)-N-(2-chloro-4-(trifluoromethyl)phenyl)acetamide], the IC50 (read-out: IC50) was in the range of 1 to 100 nM.

As to `CCc1c(N2CCN(C(=O)c3ncnc(C)c3O)CC2)c(=O)n2nc(-c3cnc4[nH]ncc4c3)nc2n1CC(=O)Nc1ccc(C(F)(F)F)cc1Cl` [Example 114, N-(2-chloro-4-(trifluoromethyl)phenyl)-2-(5-ethyl-6-(4-(5-hydroxy-6-methylpyrimidine-4-carbonyl)piperazin-1-yl)-7-oxo-2-(1H-pyrazolo[3,4-b]pyridin-5-yl)-[1,2,4]triazolo[1,5-a]pyrimidin-4(7 H)-yl)acetamide], the IC50 (read-out: IC50) lay in the range of 1 to 100 nM.

`CCc1c(N2CCN(C(=O)c3ncnc(C)c3O)CC2)c(=O)n2nc(C3CCCCC3)nc2n1CC(=O)Nc1ccc(C(F)(F)F)cc1Cl` [Example 12, N-(2-Chloro-4-(trifluoromethyl)phenyl)-2-(2-cyclohexyl-5-ethyl-6-(4-(5-hydroxy-6-methylpyrimidine-4-carbonyl)piperazin-1-yl)-7-oxo-[1,2,4]triazolo[1,5-a]pyrimidin-4(7H)-yl)acetamide]: the IC50 (read-out: IC50) lay within 1 to 100 nM.

As for `CCc1c(N2CCN(C(=O)c3ncnc(C)c3O)CC2)c(=O)n2nc(-c3cccc4occc34)nc2n1CC(=O)Nc1ccc(C(F)(F)F)cc1Cl` [Example 124, 2-(2-(benzofuran-4-yl)-5-ethyl-6-(4-(5-hydroxy-6-methylpyrimidine-4-carbonyl)piperazin-1-yl)-7-oxo-[1,2,4]triazolo[1,5-a]pyrimidin-4(7H)-yl)-N-(2-chloro-4-(trifluoromethyl)phenyl)acetamide], the 50% inhibitory concentration (IC50) (read-out: IC50) was 1 to 100 nM.

For `C=C(c1ccc(OC)cc1)c1nc2n(CC(=O)Nc3ccc(C(F)(F)F)cc3Cl)c(CC)c(N3CCN(C(=O)c4ncnc(C)c4O)CC3)c(=O)n2n1` [Example 83, N-(2-chloro-4-(trifluoromethyl)phenyl)-2-(5-ethyl-6-(4-(5-hydroxy-6-methylpyrimidine-4-carbonyl)piperazin-1-yl)-2-(1-(4-methoxyphenyl)vinyl)-7-oxo-[1,2,4]triazolo[1,5-a]pyrimidin-4(7H)-yl) acetamide], the IC50 lay in the range of 1 to 100 nM.
